{"source": "patent US20240000791A1", "about": "“Methods of Using 4-Amino-N-[4-(Methoxymethyl)Phenyl]-7-(1-Methylcyclopropyl)-6-(3-Morpholinoprop-1-YN-1-YL)-7H-Pyrrolo[2,3-D]Pyrimidine-5-Carboxamide for the Treatment of Tumors” (Helsinn Healthcare SA, priority 2020, published 2024)", "key": {"FGFR2": {"target": "FGFR2 (Homo sapiens, UniProt P21802)", "sequence (P21802 22-821)": "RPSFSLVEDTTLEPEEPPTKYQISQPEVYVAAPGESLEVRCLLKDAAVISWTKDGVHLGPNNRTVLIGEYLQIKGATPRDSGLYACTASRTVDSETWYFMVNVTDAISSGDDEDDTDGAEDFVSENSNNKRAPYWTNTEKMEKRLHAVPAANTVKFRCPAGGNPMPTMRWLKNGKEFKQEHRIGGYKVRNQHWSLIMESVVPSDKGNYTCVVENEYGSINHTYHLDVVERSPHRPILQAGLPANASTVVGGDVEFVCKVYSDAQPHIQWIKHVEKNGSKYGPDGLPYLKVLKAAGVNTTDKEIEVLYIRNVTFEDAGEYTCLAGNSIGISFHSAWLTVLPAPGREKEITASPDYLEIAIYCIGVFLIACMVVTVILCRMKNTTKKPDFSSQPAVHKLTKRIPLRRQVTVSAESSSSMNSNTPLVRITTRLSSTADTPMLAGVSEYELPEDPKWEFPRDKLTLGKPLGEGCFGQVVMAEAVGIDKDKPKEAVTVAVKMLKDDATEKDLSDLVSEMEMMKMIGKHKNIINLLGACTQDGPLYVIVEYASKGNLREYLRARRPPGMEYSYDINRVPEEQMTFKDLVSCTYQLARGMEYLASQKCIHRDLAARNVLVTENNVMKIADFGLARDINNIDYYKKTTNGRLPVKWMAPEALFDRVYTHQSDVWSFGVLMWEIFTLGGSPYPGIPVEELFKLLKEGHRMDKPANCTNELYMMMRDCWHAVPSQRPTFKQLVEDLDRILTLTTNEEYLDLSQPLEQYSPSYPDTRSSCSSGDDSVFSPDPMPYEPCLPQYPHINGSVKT", "assay": "Kinase inhibition", "assay_type": "biochemical"}, "DDR2": {"target": "T1, DDR2 (Homo sapiens, UniProt Q16832)", "T1 sequence (Q16832 22-855)": "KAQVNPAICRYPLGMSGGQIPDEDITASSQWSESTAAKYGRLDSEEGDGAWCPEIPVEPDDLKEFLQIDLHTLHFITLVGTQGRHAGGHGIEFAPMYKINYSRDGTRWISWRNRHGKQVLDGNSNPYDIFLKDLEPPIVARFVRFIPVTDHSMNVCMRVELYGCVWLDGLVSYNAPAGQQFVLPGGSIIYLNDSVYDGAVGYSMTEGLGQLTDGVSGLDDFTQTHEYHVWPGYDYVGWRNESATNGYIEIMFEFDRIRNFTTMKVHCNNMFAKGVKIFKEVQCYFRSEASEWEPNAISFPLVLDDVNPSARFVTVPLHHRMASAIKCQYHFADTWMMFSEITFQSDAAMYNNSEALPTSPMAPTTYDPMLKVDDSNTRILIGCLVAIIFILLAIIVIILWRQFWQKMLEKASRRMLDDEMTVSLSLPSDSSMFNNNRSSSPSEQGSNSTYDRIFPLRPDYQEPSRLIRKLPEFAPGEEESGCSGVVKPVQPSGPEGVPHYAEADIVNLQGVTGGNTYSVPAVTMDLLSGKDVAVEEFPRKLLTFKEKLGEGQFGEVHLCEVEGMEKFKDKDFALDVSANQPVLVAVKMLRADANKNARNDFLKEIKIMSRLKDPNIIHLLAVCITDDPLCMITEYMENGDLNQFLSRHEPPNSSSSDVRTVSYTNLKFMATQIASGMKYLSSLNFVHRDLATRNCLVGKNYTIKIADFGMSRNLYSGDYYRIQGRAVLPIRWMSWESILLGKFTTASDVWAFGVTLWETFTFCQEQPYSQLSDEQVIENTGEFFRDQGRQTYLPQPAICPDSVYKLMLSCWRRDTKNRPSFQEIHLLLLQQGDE", "assay": "Kinase inhibition", "assay_type": "biochemical"}, "PDGFRβ": {"target": "PDGFRβ (Homo sapiens, UniProt P09619)", "sequence (P09619 33-1106)": "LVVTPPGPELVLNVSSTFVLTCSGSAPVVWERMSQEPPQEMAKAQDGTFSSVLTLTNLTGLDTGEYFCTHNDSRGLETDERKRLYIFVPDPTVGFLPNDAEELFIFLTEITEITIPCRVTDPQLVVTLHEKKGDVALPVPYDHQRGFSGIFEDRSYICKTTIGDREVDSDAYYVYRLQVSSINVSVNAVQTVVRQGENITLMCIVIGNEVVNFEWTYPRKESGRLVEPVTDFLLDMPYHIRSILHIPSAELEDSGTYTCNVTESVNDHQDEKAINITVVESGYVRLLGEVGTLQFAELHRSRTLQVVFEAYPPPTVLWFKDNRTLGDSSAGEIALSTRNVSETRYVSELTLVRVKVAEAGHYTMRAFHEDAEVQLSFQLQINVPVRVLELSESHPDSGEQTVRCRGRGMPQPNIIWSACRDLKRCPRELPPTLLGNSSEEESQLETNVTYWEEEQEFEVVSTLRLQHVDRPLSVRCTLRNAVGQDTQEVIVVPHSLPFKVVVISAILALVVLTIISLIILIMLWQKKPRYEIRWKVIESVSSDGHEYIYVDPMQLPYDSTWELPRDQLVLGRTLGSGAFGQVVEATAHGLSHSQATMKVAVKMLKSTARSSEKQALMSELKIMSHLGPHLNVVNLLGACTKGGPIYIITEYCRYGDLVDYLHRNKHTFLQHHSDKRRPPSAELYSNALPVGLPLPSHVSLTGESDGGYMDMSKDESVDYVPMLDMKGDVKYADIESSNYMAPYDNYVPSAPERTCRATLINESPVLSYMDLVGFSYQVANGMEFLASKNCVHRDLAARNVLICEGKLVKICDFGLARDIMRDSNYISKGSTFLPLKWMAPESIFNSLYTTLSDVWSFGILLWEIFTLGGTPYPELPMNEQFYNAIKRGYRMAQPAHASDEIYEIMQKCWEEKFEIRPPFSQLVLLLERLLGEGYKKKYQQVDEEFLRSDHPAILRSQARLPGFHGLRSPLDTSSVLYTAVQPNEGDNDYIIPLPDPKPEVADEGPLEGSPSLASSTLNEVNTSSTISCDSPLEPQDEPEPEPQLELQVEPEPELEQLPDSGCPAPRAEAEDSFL", "assay": "Kinase inhibition", "assay_type": "biochemical"}, "DDR1": {"target": "DDR1 (Homo sapiens, UniProt Q08345)", "sequence (Q08345 19-913)": "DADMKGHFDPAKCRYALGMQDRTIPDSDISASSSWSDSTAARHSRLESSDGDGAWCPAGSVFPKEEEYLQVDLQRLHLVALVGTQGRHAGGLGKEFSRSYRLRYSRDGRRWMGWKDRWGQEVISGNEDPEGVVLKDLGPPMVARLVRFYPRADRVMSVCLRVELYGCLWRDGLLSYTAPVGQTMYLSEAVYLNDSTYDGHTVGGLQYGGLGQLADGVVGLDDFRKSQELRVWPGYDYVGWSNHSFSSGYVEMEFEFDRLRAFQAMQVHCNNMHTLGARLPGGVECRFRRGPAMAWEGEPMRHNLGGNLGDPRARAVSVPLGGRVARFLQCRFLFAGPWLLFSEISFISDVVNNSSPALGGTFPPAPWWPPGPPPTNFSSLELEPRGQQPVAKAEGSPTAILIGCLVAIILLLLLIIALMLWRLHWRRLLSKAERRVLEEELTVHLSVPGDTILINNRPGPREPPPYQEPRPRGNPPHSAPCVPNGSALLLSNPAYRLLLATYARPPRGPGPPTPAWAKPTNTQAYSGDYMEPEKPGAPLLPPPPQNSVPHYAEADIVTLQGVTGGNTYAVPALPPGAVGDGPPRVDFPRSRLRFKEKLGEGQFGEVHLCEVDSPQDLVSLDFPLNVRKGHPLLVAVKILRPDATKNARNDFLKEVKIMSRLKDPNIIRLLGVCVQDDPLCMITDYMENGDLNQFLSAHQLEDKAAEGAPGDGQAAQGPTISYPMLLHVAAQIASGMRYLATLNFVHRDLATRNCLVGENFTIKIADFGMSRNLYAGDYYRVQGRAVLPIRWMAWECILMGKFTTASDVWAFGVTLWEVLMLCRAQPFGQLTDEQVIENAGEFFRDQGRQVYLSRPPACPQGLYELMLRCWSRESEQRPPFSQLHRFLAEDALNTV", "assay": "Kinase inhibition", "assay_type": "biochemical"}, "JAK2": {"target": "JAK2 (Homo sapiens, UniProt O60674)", "sequence (O60674 whole entry)": "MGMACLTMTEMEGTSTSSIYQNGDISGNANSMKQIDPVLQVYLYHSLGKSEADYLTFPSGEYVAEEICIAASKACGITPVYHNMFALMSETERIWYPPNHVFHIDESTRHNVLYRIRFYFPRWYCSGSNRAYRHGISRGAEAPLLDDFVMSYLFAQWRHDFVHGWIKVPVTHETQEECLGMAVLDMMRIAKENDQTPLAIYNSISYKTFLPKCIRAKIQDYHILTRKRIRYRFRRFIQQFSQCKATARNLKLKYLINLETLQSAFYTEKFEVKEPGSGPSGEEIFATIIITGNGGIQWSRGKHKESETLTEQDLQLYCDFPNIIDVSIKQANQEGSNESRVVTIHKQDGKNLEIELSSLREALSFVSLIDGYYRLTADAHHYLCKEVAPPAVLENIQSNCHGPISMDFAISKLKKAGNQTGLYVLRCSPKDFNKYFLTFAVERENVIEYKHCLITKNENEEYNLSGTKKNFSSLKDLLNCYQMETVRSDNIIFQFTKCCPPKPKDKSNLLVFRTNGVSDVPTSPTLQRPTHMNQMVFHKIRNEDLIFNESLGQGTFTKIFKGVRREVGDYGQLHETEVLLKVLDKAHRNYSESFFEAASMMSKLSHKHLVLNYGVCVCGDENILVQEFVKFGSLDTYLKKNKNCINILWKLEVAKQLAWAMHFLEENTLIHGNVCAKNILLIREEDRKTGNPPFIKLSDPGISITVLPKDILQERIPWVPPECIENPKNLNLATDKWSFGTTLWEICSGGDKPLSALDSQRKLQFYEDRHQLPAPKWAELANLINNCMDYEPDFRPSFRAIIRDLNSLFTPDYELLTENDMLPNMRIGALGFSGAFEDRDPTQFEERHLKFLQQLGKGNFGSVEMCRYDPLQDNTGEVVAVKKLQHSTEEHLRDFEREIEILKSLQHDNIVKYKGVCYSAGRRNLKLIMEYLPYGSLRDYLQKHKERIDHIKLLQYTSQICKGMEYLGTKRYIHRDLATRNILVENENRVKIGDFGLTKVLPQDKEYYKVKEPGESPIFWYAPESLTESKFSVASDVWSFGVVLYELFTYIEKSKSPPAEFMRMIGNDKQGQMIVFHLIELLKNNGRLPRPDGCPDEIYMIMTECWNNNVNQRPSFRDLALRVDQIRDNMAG", "assay": "Kinase inhibition", "assay_type": "biochemical"}, "[1]": {"test_system": "Ba/F3 KIF5B-RET^G810R cells", "assay": "Ba/F3 KIF5B-RET G810R subcutaneous tumor model, first study", "assay_type": "in vivo, mouse", "conditions": "14 days; for tumor regrowth at the end of the study: 30 mg/kg bid oral"}, "JAK3": {"target": "T2, JAK3 (Homo sapiens, UniProt P52333)", "T2 sequence (P52333 1-1124)": "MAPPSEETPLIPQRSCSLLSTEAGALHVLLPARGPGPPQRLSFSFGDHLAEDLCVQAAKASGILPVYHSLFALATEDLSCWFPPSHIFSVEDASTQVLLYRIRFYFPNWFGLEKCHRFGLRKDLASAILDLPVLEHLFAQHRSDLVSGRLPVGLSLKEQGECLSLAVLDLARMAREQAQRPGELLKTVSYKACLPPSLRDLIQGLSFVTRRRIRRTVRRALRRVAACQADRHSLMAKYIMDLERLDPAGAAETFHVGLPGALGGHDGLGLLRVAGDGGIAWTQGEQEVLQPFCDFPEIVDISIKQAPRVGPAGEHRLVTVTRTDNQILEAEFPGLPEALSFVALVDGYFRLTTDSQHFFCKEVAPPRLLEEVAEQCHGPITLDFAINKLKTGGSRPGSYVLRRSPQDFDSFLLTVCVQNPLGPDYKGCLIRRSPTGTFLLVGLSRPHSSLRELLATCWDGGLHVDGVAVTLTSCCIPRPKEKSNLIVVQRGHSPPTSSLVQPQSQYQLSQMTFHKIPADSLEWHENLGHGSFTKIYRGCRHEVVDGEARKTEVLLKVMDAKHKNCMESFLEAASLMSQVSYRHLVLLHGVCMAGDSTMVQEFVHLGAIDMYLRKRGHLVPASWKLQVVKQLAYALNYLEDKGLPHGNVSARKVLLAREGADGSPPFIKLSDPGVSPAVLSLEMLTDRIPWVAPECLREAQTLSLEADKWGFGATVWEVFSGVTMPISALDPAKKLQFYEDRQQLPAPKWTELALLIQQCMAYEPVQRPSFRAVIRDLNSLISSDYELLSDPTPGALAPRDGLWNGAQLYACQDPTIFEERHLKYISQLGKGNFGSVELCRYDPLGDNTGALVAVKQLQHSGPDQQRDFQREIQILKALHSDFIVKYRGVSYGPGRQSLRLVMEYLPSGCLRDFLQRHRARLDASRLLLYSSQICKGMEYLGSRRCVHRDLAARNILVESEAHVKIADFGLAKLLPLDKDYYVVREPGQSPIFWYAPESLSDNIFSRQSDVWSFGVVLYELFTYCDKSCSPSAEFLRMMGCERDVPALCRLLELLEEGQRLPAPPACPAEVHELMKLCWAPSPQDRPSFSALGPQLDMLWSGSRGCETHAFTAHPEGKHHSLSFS", "assay": "Kinase inhibition", "assay_type": "biochemical"}, "[2]": {"conditions": "read-out: IC50 kinase inhibition, FGFR2"}, "[3]": {"conditions": "read-out: IC50 kinase inhibition, DDR2"}, "[4]": {"conditions": "read-out: IC50 kinase inhibition, PDGFRβ"}, "[5]": {"conditions": "read-out: IC50 kinase inhibition, DDR1"}, "[6]": {"conditions": "read-out: IC50 kinase inhibition, JAK2"}, "[7]": {"conditions": "read-out: IC50 kinase inhibition, JAK3"}}, "note": "Like-named read-outs stand apart in the source and are kept apart here.", "data": [{"smiles": "CO[C@]1(C(=O)N[C@@H](C)c2ccc(-n3cc(F)cn3)nc2)CC[C@H](c2nc(C)cc(Nc3cc(C)[nH]n3)n2)CC1", "note": "[BLU-667, pralsetinib]", "values": [{"measurement": "IC50", "setting": "FGFR2; [2]", "value": 35, "unit": "nM"}, {"measurement": "IC50", "setting": "DDR2; [3]", "value": 7.7, "unit": "nM"}, {"measurement": "IC50", "setting": "PDGFRβ; [4]", "value": 7.7, "unit": "nM"}, {"measurement": "IC50", "setting": "DDR1; [5]", "value": 7.1, "unit": "nM"}, {"measurement": "IC50", "setting": "JAK2; [6]", "value": 1.1, "unit": "nM"}, {"measurement": "tumor regrowth at the end of the study", "setting": "[1]", "value": "trend to tumor regrowth"}, {"measurement": "IC50", "setting": "JAK3; [7]", "value": 6.1, "unit": "nM"}]}, {"smiles": "COCc1ccc(NC(=O)c2c(C#CCN3CCOCC3)n(C3(C)CC3)c3ncnc(N)c23)cc1", "note": "[HM06/TAS0953, 4-amino-N-(4-(methoxymethyl)phenyl)-7-(1-methylcyclopropyl)-6-(3-morpholinoprop-1-yn-1-yl)-7H-pyrrolo[2,3-d]pyrimidine-5-carboxamide]", "values": [{"measurement": "IC50", "setting": "FGFR2", "value": 1850, "unit": "nM"}, {"measurement": "IC50", "setting": "DDR2", "value": "> 3000", "unit": "nM"}, {"measurement": "IC50", "setting": "PDGFRβ", "value": 2760, "unit": "nM"}, {"measurement": "IC50", "setting": "DDR1", "value": 1190, "unit": "nM"}, {"measurement": "IC50", "setting": "JAK2", "value": "> 3000", "unit": "nM"}, {"measurement": "tumor volume at the end of the study vs control", "setting": "[1]; 10 mg/kg bid oral", "value": "significantly decreased tumor volume"}, {"measurement": "tumor regrowth at the end of the study", "setting": "[1]", "value": "did not show tumor regrowth"}, {"measurement": "IC50", "setting": "JAK3", "value": "> 3000", "unit": "nM"}]}, {"smiles": "COc1ccc(CN2C3CC2CN(c2ccc(-c4cc(OCC(C)(C)O)cn5ncc(C#N)c45)cn2)C3)cn1", "note": "[LOXO-292, selpercatinib]", "values": [{"measurement": "IC50", "setting": "FGFR2; [2]", "value": 34, "unit": "nM"}, {"measurement": "IC50", "setting": "DDR2; [3]", "value": 417, "unit": "nM"}, {"measurement": "IC50", "setting": "PDGFRβ; [4]", "value": 67, "unit": "nM"}, {"measurement": "IC50", "setting": "DDR1; [5]", "value": 103, "unit": "nM"}, {"measurement": "IC50", "setting": "JAK2; [6]", "value": "> 3000", "unit": "nM"}, {"measurement": "tumor regrowth at the end of the study", "setting": "[1]", "value": "trend to tumor regrowth"}, {"measurement": "IC50", "setting": "JAK3; [7]", "value": 2840, "unit": "nM"}]}]}
